Assay [1] addresses T1, interaction between PD-1 and PD-L1 (Homo sapiens, UniProt Q9NZQ7).
T1 construct: expressed in transfected cells; host or cells: CHO-K1 co-transfected with PD-1-YFP and SHP-2-CFP
The assay can be described thus: FRET assay (PD-1-YFP / SHP-2-CFP in CHO-K1 cells, activation with PD-L1). The conditions noted are these: co-transfected PD-1-SHP2 CHO-K1 cells, after addition of PD-L1 (10 µM). The class given is cell-based. From the text: Energy transfer between fluorescent molecules (FRET) is a technique that allows visualizing interactions between 2 fluorescent molecules. A fluorescent molecule, called "donor", will transfer its energy, once excited, to another fluorescent molecule called "acceptor". The fluorescence of the donor decreases while the acceptor's one increases (see Figure 1).
A model was developed using CHO-K1 cells involving overexpression of proteins of interest. It involves the expression of a PD-1-YFP fluorescent protein and a second fluorescent protein SHP-2-CFP (phosphatase recruited during the interaction between PD-1 and PD-L1).
A Spectramax i3 is configured according to the selected fluorochromes with their excitation and emission spectra. Endpoint reading is performed, at the center of the well; the reading time is 2 minutes for a 96-well plate.
For this test, a 96-well flat-bottomed white plate is required. All mixes introduced into the plate are made of triplicate. The negative control is provided by the CHO transfected by the void plasmid, the positive control is provided by CHO transfected with a plasmid containing the YFP-CFP fusion protein making it possible to mimic the FRET phenomenon. […] It is also necessary to remove the background noise, that is to say the FRET without activation with PD-L1. […] Nivolumab was taken as positive control of interaction's inhibitions.

A further assay deals with T2, hPD-L1-eGFP (Homo sapiens, UniProt Q9NZQ7).
T2 construct: expressed in transfected cells; host or cells: CHO-K1 (cell lysate used)
The assay can be described thus: Microscale thermophoresis (MST) PD-L1 binding assay. The conditions noted are these: CHO-K1 cell lysate, hPD-L1-eGFP 35 nM, PBS-T buffer (0.05% Tween 20). From the text: The quantity of cells for this protocol can vary from 10 to 40 million. […] Different types of additives such as Tween 20, various MgCl2 concentrations, BSA have been tested to avoid sample aggregation and different types of capillaries have been investigated to reduce the adsorption within capillaries. Various buffers have also been tested and are listed in the related section. The fluorescence measurement is made using a small quantity of cell lysate within a capillary chosen among different available capillaries: standard, premium, hydrophilic or hydrophilic. The highest concentration of ligand must be at least 20 times higher than the expected dissociation constant of the interaction under study. However, the lowest concentration of ligand must be lower than the concentration of the fluorescent protein. An online tool created by NanoTemper® can be used and allows determining the range of ideal concentration. The concentration of the fluorescent protein can be determined using a GFP dosage kit (Abnova KA0911) or a calibration curve.
CHO-K1 cells were transfected with the Cell Line Nucleofector® Kit T, Program U-023 and the pcDNA 3.1 hygro plasmid expressing PD-1-eGFP. 2 µg of plasmid was transfected in one million CHO-K1 cells suspended in 100 µL Nucleofector solution. Cells were analyzed 48 hours post Nucleofection® by flow cytometry. Cells are put under the appropriate selective pressure which will only allow growth of cells containing the DNA insert. After three weeks of selective pressure, the multiparametric analysis of transfected CHO-K1 cells over-expressing mPD-1-eGFP allows defining sub-populations which can be separated from the global population. The population of cells strongly expressing eGFP is analyzed by flow cytometry and kept for MicroScale Thermophoresis analysis. The exact same protocol from transfection to cytometry analysis is lead on CHO-K1 cells expressing the hPD-L1-eGFP protein.
MST was used to establish the binding affinity between PD-L1-eGFP and Compounds. Cell lysate was diluted in PBS-T buffer (0.05% Tween 20) to a final concentration at which the fluorescent signals of the GFP proteins were similar and above the typical detection limit of the Monolith NT.115 instrument (NanoTemper Technologies). […] For the binding between hPD-L1-eGFP with compounds, several dilutions were made between 1mM to 1 nM to cover a wide concentration range. Ten microliters of cell lysate are added to 10 µL of each ligand solution. Nivolumab was taken as reference.
On the technique in general: Microscale thermophoresis detects binding through changes in fluorescence in a small temperature gradient.

A short description of assay [2]: In vitro spread test (CFSE CellTrace cell proliferation, flow cytometry). It counts as cell-based. The conditions noted are these: IC50 of proliferation, flow cytometry D0 to D3. An excerpt:
The CellTrace™ Cell Proliferation Kits provide versatile and well-retained cell tracing reagents in a convenient and easyto-use form. Each kit contains a CellTrace™ reagent in single-use vials to permit small scale experiments without preparing excess quantities of stock solution. The CellTrace™ reagents readily diffuse into cells and bind covalently to intracellular amines, resulting in stable, well-retained fluorescent staining that can be fixed with aldehyde fixatives. Excess unconjugated reagent passively diffuses to the extracellular medium, where it can be quenched with complete media and washed away. The kit is supplied by ThermoFisher Scientific.
• 1. Number of days on which the manipulation is done: 3 (from D0 to D3: 4 passages in cytometry) • 2. Volume of cell suspension needed: 2.5ml (0.5ml / day) • 3. Number of cells needed: 2.5mlx0.5M / ml = 1.25M per cell line. • 4. Number the cells and check their viability. • 5. Prepare the desired number of cells. • 6. Centrifuge, resuspend at a 1M/mL concentration in PBS (the probe binds to the proteins of the medium) • 7. Add 0.5µM of CellTrace (dilute 1/10 of the stock solution, add 1 / 1000th in the PBS-cell mix: take 1µl of probe at the main concentration, add 9µL of PBS) • 8. Incubate for 20 minutes at 37 ° C in the dark. • 9. Add 5 volumes of medium to capture the excess of probe (1.2x5 = 6ml) • 10. Incubate for 5 minutes at 37 ° C. • 11. Centrifuge, resuspend the cells at the desired concentration of 0.5M / ml in preheated medium. Plate 24 wells. • 12. Establish the J0 at least 5h after marking. • 13. Flow cytometry is then performed to evaluate cell division and to determine an IC50 of proliferation using Graphpad.
A general note: A flow cytometer gives signals particle by particle.

Molecules are shown by their SMILES.

T1 sequence (Q9NZQ7 19-238 limits assumed): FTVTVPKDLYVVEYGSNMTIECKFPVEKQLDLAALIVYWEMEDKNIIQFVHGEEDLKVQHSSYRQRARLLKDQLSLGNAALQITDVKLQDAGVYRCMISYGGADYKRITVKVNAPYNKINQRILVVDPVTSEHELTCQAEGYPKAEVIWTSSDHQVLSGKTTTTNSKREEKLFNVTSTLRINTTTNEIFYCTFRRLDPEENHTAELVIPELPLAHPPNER
T2 sequence (Q9NZQ7 19-290): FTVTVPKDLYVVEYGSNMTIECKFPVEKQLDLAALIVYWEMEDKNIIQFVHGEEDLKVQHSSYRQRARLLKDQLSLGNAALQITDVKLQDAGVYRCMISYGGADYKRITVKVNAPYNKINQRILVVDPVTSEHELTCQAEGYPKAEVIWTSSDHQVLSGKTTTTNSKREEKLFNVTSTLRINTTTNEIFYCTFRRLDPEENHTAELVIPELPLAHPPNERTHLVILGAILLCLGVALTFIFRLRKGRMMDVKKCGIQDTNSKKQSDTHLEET

A word on the IC50: it is the concentration that gives 50% inhibition. The term Kd denotes the free concentration of one partner at which half of the binding sites on the other are occupied at equilibrium, for simple one-to-one binding. The low end stands for higher affinity, the high end for lower affinity. With `COc1ccccc1C1=NN(c2ccccn2)C(=O)C1` [ALIPD60, 3-(2-methoxyphenyl)-1-(2-pyridyl)-4,5-dihydro-1H-5-pyrazolone], in assay [1], it took 7 nM to reach half-maximal inhibition (IC50). On hPD-L1-eGFP, this molecule displayed a Kd of 23 nM.
In the same order, the values of `COc1ccc(C2=NN(c3cc(Cl)ccc3Cl)C(=O)C2)cc1` are 12000 ± 3000 nM and 8000 ± 2000 nM.
In the same order, the values of `COc1ccc(C2=NN(c3ccc(Cl)cc3Cl)C(=O)C2)cc1OC` [ALIPD52, 1-(2,4-Dichlorophenyl)-3-(3,4-dimethoxyphenyl)-4,5-dihydro-1H-5-pyrazolone] are 196 ± 17 nM and 212 ± 23 nM.
Consider `O=C1CC(C23CC4CC(CC(C4)C2)C3)=NN1c1ccccn1` [ALIPX57, 3-(Adamantan-1-yl)-1-(pyridin-2-yl)-4,5-dihydro-1H-5-pyrazolone], for which the IC50 in assay [1] stood at 4 ± 2 nM; in assay [2] it was 192 nM. The molecule also showed a Kd on hPD-L1-eGFP of 340 ± 27 nM.
Turning to `O=C1CC(c2cccc(C(F)(F)F)c2)=NN1c1ccccn1` [ALIPD58, 1-(2-pyridyl)-3-[3-(trifluoromethyl)phenyl]-4,5-dihydro-1H-5-pyrazolone], the IC50 in assay [1] came out at 1100 nM. Also, binding at hPD-L1-eGFP was characterised by a dissociation constant (Kd) of 1200 nM.
In assay [1], `O=C1CC(c2ccccc2)=NN1c1ccc(Cl)cc1Cl` had an IC50 of 9000 ± 5000 nM. Further, the dissociation constant Kd at hPD-L1-eGFP came out at 14000 ± 3000 nM.
In the same order, the values of `COc1ccc(C2=NN(c3ccc(Cl)cc3Cl)C(=O)C2)cc1` [ALIPX05, 1-(2,4-Dichlorophenyl)-3-(4-methoxyphenyl)-4,5-dihydro-1H-5-pyrazolone] are 51000 ± 3000 nM and 68000 ± 7000 nM.
With `O=C1CC(C2CCCCCC2)=NN1c1ccc(Cl)cc1Cl`, the half-maximal inhibitory concentration (IC50) in assay [1] worked out at 67000 ± 9000 nM. Also, the dissociation constant (Kd) on hPD-L1-eGFP was 80000 ± 12000 nM.
In the same order, the values of `O=C1CC(c2ccc(Cl)cc2Cl)=NN1c1ccccn1` [ALIPD26, 3-(2,4-Dichlorophenyl)-1-(pyridin-2-yl)-4,5-dihydro-1H-5-pyrazolone] are 98 ± 12 nM and 110 ± 17 nM.
In the same order, the values of `O=C1CC(c2ccc([N+](=O)[O-])cc2)=NN1c1ccc(Cl)cc1Cl` [ALIPD33, 1-(2,4-Dichlorophenyl)-3-(4-nitrophenyl)-4,5-dihydro-1H-5-pyrazolone] are 43000 ± 6000 nM and 72000 ± 17000 nM.
Turning to `COc1ccc(C2=NN(c3ccc(OC)cc3)C(=O)C2)cc1` [ALIPD24, 1-(4-methoxyphenyl)-3-(4-methoxyphenyl)-4,5-dihydro-1H-5-pyrazolone], the half-inhibitory concentration (IC50) in assay [1] is 230 ± 35 nM. The molecule also had a Kd on hPD-L1-eGFP of 375 ± 43 nM. The “In vitro spread test” value in assay [2] is “No effect”.
In assay [1], `O=C1CC(c2ccc(Cl)cc2)=NN1c1ccccn1` [ALIPD59, 3-(4-chlorophenyl)-1-(2-pyridyl)-4,5-dihydro-1H-5-pyrazolone] gave an IC50 of 33000 ± 7000 nM. On hPD-L1-eGFP, the Kd worked out at 27000 ± 5000 nM.
`COc1ccc(C2=NN(c3ccccn3)C(=O)C2)cc1` [ALIPD19, 3-(4-Methoxyphenyl) -1-(pyridin-2-yl)-4,5-dihydro-1H-5-pyrazolone]: the IC50 in assay [1] was 17 nM; in assay [2], 75 nM. At hPD-L1-eGFP, this molecule showed a Kd of 83 nM.
In assay [1], `COc1ccc(C2=NN(c3cc(Cl)cc(Cl)c3)C(=O)C2)cc1` [ALIPX02, 1-(3,5-Dichlorophenyl)-3-(4-methoxyphenyl)-4,5-dihydro-1H-5-pyrazolone] yielded an IC50 of 15000 ± 5000 nM. This molecule had a Kd at hPD-L1-eGFP of 18000 ± 3000 nM.
In the same order, the values of `O=C1CC(C23CC4CC(CC(C4)C2)C3)=NN1c1cc(Cl)cc(Cl)c1` [ALIPD28, 3-(Adamantan-1-yl)-1-(3,5-dichlorophenyl)-4,5-dihydro-1H-5-pyrazolone] are 785 ± 87 nM and 890 ± 75 nM.

Values taken from patent EP3766544A1 (Centre Hospitalier Regional Universitaire de Lille, priority 2019, dated 2021).
